# Test results reported in ChEMBL document CHEMBL4406817, “Cell-active carbazole derivatives as inhibitors of the zika virus protease” (Eur J Med Chem, 2019).
# The source made the active and inactive calls. The calls are words filed in the database; no cut-off is given here.
# Key:
# [1] = Cytotoxicity against human HuH7 cells assessed as reduction in cell viability incubated for 48 hrs by cellTiter-Glo assay; format: cell-based, Huh-7
# Nonstructural protein 3 [2] = target: T1, Nonstructural protein 3 (Zika virus, UniProt A0A024AXB9); test: (§1) Inhibition of N-terminal unlinked Zika virus NS2B (45 to 96 residues) - NS3 (1 to 177 residues) protease domain expressed in Escherichia coli Bl21(DE3) using Bz-nKRR-AMC as substrate preincubated for 15 mins followed by substrate addition and measured by fluorescence based assay
# [3] = target: Nonstructural protein 3 (Zika virus) (UniProt A0A024AXB9); test: as §1, with “Non-competitive inhibition” for “Inhibition”, “30” for “15”, “measured for every 60 sec over 12 mins” for “measured”, “Lineweaver-burk plot analysis” for “assay”
# Zika virus [4] = test: Antiviral activity against Zika virus H/PF/2013 infected in human HuH7 cells assessed as reduction in viral titer incubated for 24 hrs by plague assay; format: functional, organism-based
# [5] = Selectivity index, ratio of CC50 for cytotoxicity against human HuH7 cells to EC50 for antiviral activity against H/PF/2013 Zika virus infected in human HuH7 cells; format: toxicity, cell-based; conditions: for selectivity ratio: HuH7 cells, read-out: Ratio CC50/EC50
# Nonstructural protein 3 [6] = target: T1, Nonstructural protein 3; test: Inhibition of N-terminal linked Zika virus NS2B (45 to 96 residues) - NS3 (1 to 177 residues) protease domain expressed in Escherichia coli Bl21(DE3) using Bz-nKRR-AMC as substrate preincubated for 15 mins followed by substrate addition and measured by fluorescence based assay
# [7] = Selectivity index, ratio of EC50 of antiviral activity against Zika virus infected in human HuH7 cells to IC50 of inhibition of N-terminal unlinked Zika virus NS2B (45 to 96 residues) - NS3 (1 to 177 residues) protease domain expressed in Escherichia coli Bl21(DE3); format: toxicity
# Zika virus [8] = test: Antiviral activity against Zika virus; format: functional, organism-based
# Nonstructural protein 3 [9] = target: T1, Nonstructural protein 3; test: Inhibition of N-terminal His6-tagged Zika virus NS2B (45 to 96 residues) - NS3 (1 to 177 residues) protease domain expressed in Escherichia coli Bl21(DE3) using Bz-nKRR-AMC as substrate preincubated for 30 mins in presence of bZipro and measured for 60 sec over 10 mins by fluorescence based assay
# [10] = Cytotoxicity against human A549 cells assessed as reduction in cell viability incubated for 42 hrs by WST-8 assay; format: cell-based
# [11] = Selectivity index, ratio of EC50 of antiviral activity against Zika virus infected in human A549 cells to IC50 of inhibition of N-terminal His6-tagged Zika virus NS2B (49 to 95 residues) - NS3 (1 to 185 residues) protease domain expressed in Escherichia coli Bl21(DE3); format: toxicity
# Nonstructural protein 3 [12] = target: T1, Nonstructural protein 3; test: (§2) Inhibition of N-terminal His-tagged Zika virus NS2B (49 to 95 residues) - NS3 (1 to 185 residues) protease domain expressed in Escherichia coli Bl21(DE3) using TAMRA-RRRRSAG-GXL570 as substrate preincubated for 30 mins followed by substrate addition measured after 1 hr by fluorescence based assay
# Nonstructural protein 3 [13] = target: T1, Nonstructural protein 3; test: Inhibition of N-terminal His-tagged Zika virus NS2B (46 to 99 residues) - NS3 (1 to 187 residues) protease domain expressed in Rosetta2-(DE3) assessed as inhibitory constant using Boc-Gly-Arg-Arg-AMC as substrate and measured for 10 mins by fluorescence based assay
# Nonstructural protein 3 [14] = target: T1, Nonstructural protein 3; test: Inhibition of N-terminal His6-tagged Zika virus NS2B (46 to 99 residues) - NS3 (1 to 187 residues) protease domain expressed in Rosetta2-(DE3) using Boc-Gly-Arg-Arg-AMC as substrate preincubated for 10 mins followed by substrate addition and measured for 6 mins by fluorescence based assay
# Nonstructural protein 3 [15] = target: T1, Nonstructural protein 3; test: as §2, with “His6-tagged” for “His-tagged”, “170” for “185”, “Bz-Nle-Lys-Lys-Arg-AMC” for “TAMRA-RRRRSAG-GXL570”, “10” for “30”, “10 mins” for “1 hr”
# [16] = Zika virus, H/PF/2013, Huh-7, 24 h, read-out: EC50
# T1 sequence (A0A024AXB9 whole entry, the tested form may be a part): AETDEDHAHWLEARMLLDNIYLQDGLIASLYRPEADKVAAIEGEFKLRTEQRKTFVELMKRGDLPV
# Nonstructural protein 3 (Zika virus), sequence (A0A024AXB9 as listed by the source): as the sequence (A0A024AXB9 whole entry, the tested form may be a part) above
SMILES,CC50 at 48 h [1] [µM],IC50 (Nonstructural protein 3 [2]) [µM],EC50 (Zika virus [4]; [16]) [µM],selectivity ratio [5],other results
Cn1c2ccc(-c3cccc(C(=N)N)c3)cc2c2cc(-c3cccc(C(=N)N)c3)ccc21,47.5,0.52,1.25,38,inhibition [3]: Active; IC50 (Nonstructural protein 3 [6]): 3.65 µM; Selectivity Index [7]: 3
COc1cccc(S(=O)(=O)n2c3ccc(-c4cccc(C#N)c4)cc3c3cc(-c4cccc(C(=N)N)c4)ccc32)c1,37.9,0.82,16,2.37,Selectivity Index [7]: 1 to 10
CO[C@@H]1[C@@H](OC(N)=O)[C@@H](O)[C@H](Oc2ccc3c(O)c(NC(=O)c4ccc(O)c(CC=C(C)C)c4)c(=O)oc3c2C)OC1(C)C [NOVOBIOCIN],,,,,EC50 (Zika virus [8]): 62.2 µM
N=C(N)c1cccc(-c2ccc3ccc(-c4cccc(C(=N)N)c4)cc3c2)c1,,32.5,4.95,,IC50 (Nonstructural protein 3 [6]): 49.5 µM
COc1ccc(S(=O)(=O)n2nc(OC(=O)c3cccc(-c4ccccc4Cl)c3)cc2N)cc1,,,,,IC50 (Nonstructural protein 3 [9]): 0.1 µM
N=C(N)c1cccc(S(=O)(=O)n2c3ccc(Br)cc3c3cc(Br)ccc32)c1,6.58,14.2,3.26,4.14,
COc1cccc(S(=O)(=O)n2c3ccc(-c4cccc(C(=N)N)c4)cc3c3cc(-c4cccc(C(=N)N)c4)ccc32)c1,> 100,0.99,23.8,> 4,Selectivity Index [7]: 1 to 10
Cn1c2ccc(Br)cc2c2cc(-c3cccc(C(=N)N)c3)ccc21,6.57,13.9,1.35,5.42,
N=C(N)c1cccc(-c2cccc(-c3cccc(C(=N)N)c3)c2)c1,,38.3,,,IC50 (Nonstructural protein 3 [6]): 104 µM
N=C(N)c1cccc(Cn2c3ccc(Br)cc3c3cc(Br)ccc32)c1,12.8,25.6,5.09,2.51,
COc1cccc(Cn2c3ccc(-c4cccc(C#N)c4)cc3c3cc(-c4cccc(C(=N)N)c4)ccc32)c1,3.3,1.91,1.95,2.8,
COc1cccc(S(=O)(=O)n2c3ccc(Br)cc3c3cc(-c4cccc(C(=N)N)c4)ccc32)c1,5.22,8.1,,,EC50 (Zika virus [4]): Not Active; Ratio CC50/EC50 [5]: Not Active
N#Cc1cccc(-c2ccc3c(c2)c2cc(-c4cccc(C#N)c4)ccc2n3Cc2cccc(C(=N)N)c2)c1,7.48,14.9,,,EC50 (Zika virus [4]): Not Active
O=C1C=C/C(=N/Nc2ccc([N+](=O)[O-])cc2Cl)C=C1C(=O)Nc1cccc(Cl)c1,,,,,CC50 at 42 h [10]: 48.8 µM; Selectivity Index [11]: 48; IC50 (Nonstructural protein 3 [12]): 0.38 µM
Cn1c2ccc(-c3cccc(C#N)c3)cc2c2cc(-c3cccc(C(=N)N)c3)ccc21,6.25,1.7,,,EC50 (Zika virus [4]): Not Active
COc1cccc(Cn2c3ccc(-c4cccc(C(=N)N)c4)cc3c3cc(-c4cccc(C(=N)N)c4)ccc32)c1,22.7,1.75,6.37,3.4,Selectivity Index [7]: 1 to 10
N=C(N)c1cccc(NC(=O)Nc2cccc(C(=N)N)c2)c1 [AMICARBALIDE],,,,,IC50 (Nonstructural protein 3 [6]): 47.6 µM
N=C(N)c1cccc(-c2ccc3c(c2)c2cc(Br)ccc2n3S(=O)(=O)c2cccc(C(=N)N)c2)c1,35.7,9.19,5.9,4.2,Selectivity Index [7]: 1 to 10
N#Cc1cccc(-c2ccc3c(c2)c2cc(-c4cccc(C#N)c4)ccc2n3S(=O)(=O)c2cccc(C(=N)N)c2)c1,3.35,3.5,,,EC50 (Zika virus [4]): Not Active
COc1ccc(Cl)c2sc(NC(=O)c3ccccc3NS(=O)(=O)c3ccc(C)cc3)nc12,,,,,Ki (Nonstructural protein 3 [13]): 9 µM; IC50 (Nonstructural protein 3 [14]): 4.1 µM
COc1cccc(Cn2c3ccc(Br)cc3c3cc(-c4cccc(C(=N)N)c4)ccc32)c1,5.3,4.04,2.27,2.3,
CC(C)C[C@H]1C(=O)N2CCC[C@H]2[C@]2(O)O[C@](NC(=O)[C@@H]3C=C4c5cccc6[nH]c(Br)c(c56)C[C@H]4N(C)C3)(C(C)C)C(=O)N12 [BROMOCRIPTINE],,,,,IC50 (Nonstructural protein 3 [15]): 13 µM
